Assay results published in patent US20060121449A1, “Method for selection of compounds which inhibit clonal cell growth and use thereof” (priority 2002, published 2006).
Entries after “also recorded” stand apart in the source; their conditions may differ. Starred links: 1 amine or outer side, 2 acyl side, 3 side chain; linkers in the order of their positions; H or OH if unused. Positions of bridges follow the written chain, without caps; N, C: chain ends. Non-standard residues stand in square brackets, D forms with d. Residues, ends and D or L forms follow the SMILES beside them. Chains are numbered I, II in the order given. Actinocin(9to1) = Cc1c2oc3c(C)ccc(C(=O)[*:1])c3nc-2c(C(=O)[*:2])c(N)c1=O; NMeV = CN[C@H](C(=O)O)C(C)C; Sar = CNCC(=O)O

System: polyoma virus transformed BHK21/c13 cells, line S100T1
Test: Collocation inhibition test: clonal growth in sparsely and densely seeded areas of a cell density gradient of S100T1 cells in soft agar (Exp 13, 17, 19-26);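 also: soft agar cultures in 24-well plates with a cell density gradient in the top layer, compounds applied from DMSO stocks, clonal growth scored in sparse versus dense areas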;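 as to Clonal growth, H high density area of cell gradient, High: grades rise with clonal growth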;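 as to Clonal growth, H high density area of cell gradient, Low: grades rise with clonal growth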;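 as to Clonal growth, H high density area of cell gradient, Medium: grades rise with clonal growth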;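 as to Clonal growth, L low density area of cell gradient, High: grades rise with clonal growth and minus or plus-minus means none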;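 as to Clonal growth, L low density area of cell gradient, Low: grades rise with clonal growth and minus or plus-minus means none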;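 as to Clonal growth, L low density area of cell gradient, Medium: grades rise with clonal growth and minus or plus-minus means none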
Details: for Clonal growth after 48 hours incubation: H: high cell density part of the gradient; for Clonal growth, H: high density area of cell gradient, High / Clonal growth, L: low density area of cell gradient, High / Clonal growth, H: high density area of cell gradient, Low / Clonal growth, L: low density area of cell gradient, Low / Clonal growth, H: high density area of cell gradient, Medium / Clonal growth, L: low density area of cell gradient, Medium: 4-OH-OPB analogues, S100T1 in soft agar; for Clonal growth, H: high density area of cell gradient, Low / Clonal growth, L: low density area of cell gradient, Low / Clonal growth, H high density area of cell gradient, Low / Clonal growth, L low density area of cell gradient, Low: low concentration; for Clonal inhibition by 4-OH-OPB analogues, summary of Exp 22-25: sparsely seeded areas while densely seeded areas of the same culture showed significant growth; for Effect on clonal growth and toxicity: 117000 S100T1 cells/well; for Clonal growth, H high density area of cell gradient, High / Clonal growth, L low density area of cell gradient, High / Clonal growth, H high density area of cell gradient, Low / Clonal growth, L low density area of cell gradient, Low / Clonal growth, H high density area of cell gradient, Medium / Clonal growth, L low density area of cell gradient, Medium / Effect on cell cloning in soft agar: preliminary results; for Clonal growth, H high density area of cell gradient, High / Clonal growth, L low density area of cell gradient, High / Clonal growth, H high density area of cell gradient, Low / Clonal growth, L low density area of cell gradient, Low / Clonal growth, H high density area of cell gradient, Medium / Clonal growth, L low density area of cell gradient, Medium: Exp 13-18, 21-26; for Effect on cell cloning in soft agar: in words; for Significance: Exp 17 day 14; for Resulting clonal growth of treated cultures: Experiment 26, read after 24 hours
[1] = Experiment 25, H: area with high cell density, Low concentration, after 48 hours incubation
[2] = Experiment 25, H: area with high cell density, Medium concentration, after 48 hours incubation
[3] = Experiment 25, L: area with low cell density, High concentration, after 48 hours incubation
[4] = Experiment 25, L: area with low cell density, Low concentration, after 48 hours incubation
[5] = Experiment 25, L: area with low cell density, Medium concentration, after 48 hours incubation
[6] = Summary Table 3 of analogue tests (experiments 22-25), H (high cell density), Low concentration
[7] = Summary Table 3 of analogue tests (experiments 22-25), H (high cell density), Medium concentration
[8] = Summary Table 3 of analogue tests (experiments 22-25), L (low cell density), High concentration
[9] = Summary Table 3 of analogue tests (experiments 22-25), L (low cell density), Low concentration
[10] = Summary Table 3 of analogue tests (experiments 22-25), L (low cell density), Medium concentration
[11] = Exp 21, 117000 cells per well, Low concentration (see figure), H: area with high cell density
[12] = Exp 21, High concentration, H: area with high cell density
[13] = Exp 21, Low concentration, L: area with low cell density
[14] = Exp 21, Medium concentration, H: area with high cell density
[15] = Exp 21, Medium concentration, L: area with low cell density

Description: The cells should be grown in a top agar layer to avoid growth on the bottom surface. […] Both densely seeded and sparsely seeded areas were photographed.
Cells: The polyoma virus transformed offspring of BHK21/c13, S100T1, was grown on 75 cm^2 flasks on Eagles medium with 5% foetal calf serum. […] Foetal calf serum (0.7 ml) was added to each harvest. After low speed centrifugation the supernatant was discarded and the cells were dispersed in 1 ml FBS.
The concentration of ultra low gelling temperature agarose (Sigma) of the top agar layer with cells was also 0.8%. […] The addition of cells was performed at the same side of the wells in order to create similar cell density gradients. Finally the top layer agar was consolidated in the refrigerator.
After that it was incubated at 37 degrees in 5% CO2 atmosphere.
Agar cultures were prepared in Falcon 24 well tissue culture plate. Each well contained two agar layers of 0.3 ml.
Agar cultures were prepared in wells of Falcon 24 well tissue culture plate. Each contained two agar layers of 0.3 ml. […] The medium contained Eagles MEM and 10% foetal bovine serum (FBS).
The compounds were first solved in DMSO in 20 mM concentration and then diluted in medium. The top layer needed 60-90 minutes in the refrigerator for solidification before incubation in 37° C. with 5% CO2 atmosphere.
In this experiment the inhibitor was added to the bottom layer in order to get an easier way for making the cell density gradient. One side of the Falcon 24 well plate was elevated 12 degrees in the refrigerator for 60-90 minutes to solidify the bottom layer in an oblique position When then solidifying the cell containing top soft agar layer in horizontal position, the cell gradient constantly became good across the well. […] Another 90 minutes were spent in the refrigerator to consolidate the soft agar layer with cells in a horizontal position. Both layers contained 0.8% agarose, Eagles MEM and 10% FBS.
Tilting the plate 12 degrees when solidifying the bottom layer with the drug and casting the top layer with cells horizontally made a stable cell gradient.
The indicated compounds were added to soft agar cultures of the polyoma virus transformed cell line S100T1 of BHK21/c13 cells (Table 1). Agar cultures were prepared in wells of a Falcon 24 well tissue culture plate. The wells contained two agar layers of 0.3 ml. […] The bottom medium was identical, but without cells.
The compounds were first solved in DMSO in 20 mM concentration and then diluted in bottom medium. The agar layers needed 60-90 minutes in the refrigerator for consolidation before incubation at 37° C. in 5% CO2 atmosphere.

O=P1(N(CCCl)CCCl)NCCCO1 (stereo not shown) [Cycloph. amide]
Clonal growth after 48 hours incubation (Exp 19, high concentration): ++
Clonal growth after 48 hours incubation (Exp 19, low concentration (exact conc. only in figure)): ++(+)
Clonal growth after 48 hours incubation (Exp 19, medium concentration): ++(+)

COc1cc2c(c(OC)c1OC)-c1ccc(OC)c(=O)cc1[C@@H](NC(C)=O)CC2 [Colchicin]
Control of metastatic cells leaving tumour (ability of cells to leave a tumour, grow and infiltrate locally or grow in sparsely seeded areas, concluded from Exp 17): probably not
Control of settlement of metastatic cells (single cells or very few cells spread to distant sites, concluded from Exp 17): partly
Toxicity for body or dense cell populations (supposed main advantages or disadvantages if used in cancer treatment, concluded from Exp 17): none or small
Tolerating long duration of treatment (supposed, if used in cancer treatment): yes

4-hydroxy-4-aldehyd-1,2-diphenyl-pyrazolidinedione [#10]
Clonal growth, H: high density area of cell gradient, High (high concentration): ((+))
Clonal growth, L: low density area of cell gradient, High (high concentration): −
Clonal growth, H: high density area of cell gradient, Low: ++
Clonal growth, L: low density area of cell gradient, Low: ++
Clonal growth, H: high density area of cell gradient, Medium (medium concentration): ++
Clonal growth, L: low density area of cell gradient, Medium (medium concentration): −
Concentration inhibiting clonal growth of sparsely seeded cells without affecting densely seeded areas (Exp 25, medium concentration, 180000 S100T1 cells/well): about 50 μM
Clonal growth [1]: ++
Clonal growth [2]: ++
Clonal growth [3]: −
Clonal growth [4]: ++
Clonal growth [5]: −
Clonal growth [6]: ++
Clonal growth [7]: ++
Clonal growth [8]: −
Clonal growth [9]: ++
Clonal growth [10]: −
Clonal inhibition by 4-OH-OPB analogues, summary of Exp 22-25 (listed as # 10): complete inhibition of growth in sparsely seeded areas

O=c1[nH]cc(F)c(=O)[nH]1 [Fluorouracil, reference compound]
Effect on clonal growth and toxicity (Exp 21): relatively moderate inhibition of clonal growth and low toxicity independent of dosage
Clonal growth [11]: ++
Clonal growth [12]: ++
Clonal growth (Exp 21, High concentration, L: area with low cell density): +
Clonal growth [13]: +
Clonal growth [14]: ++
Clonal growth [15]: +
Clonal growth, H high density area of cell gradient, High (high concentration): ++
Clonal growth, L low density area of cell gradient, High (high concentration): +
Clonal growth, H high density area of cell gradient, Low: ++
Clonal growth, L low density area of cell gradient, Low: +
Clonal growth, H high density area of cell gradient, Medium (medium concentration): ++
Clonal growth, L low density area of cell gradient, Medium (medium concentration): +
Effect on cell cloning in soft agar: Rel. moderate inhibition of clonal growth

COc1c(C)c2c(c(O)c1C/C=C(\C)CCC(=O)O)C(=O)OC2 [Mycophenolic acid, reference compound]
Clonal growth, H high density area of cell gradient, High (high concentration): (+)
Clonal growth, L low density area of cell gradient, High (high concentration): (+)
Clonal growth, H high density area of cell gradient, Low: (+)
Clonal growth, L low density area of cell gradient, Low: (+)
Clonal growth, H high density area of cell gradient, Medium (medium concentration): (+)
Clonal growth, L low density area of cell gradient, Medium (medium concentration): (+)
Effect on cell cloning in soft agar: Less growth in both high and low

CCCCC1(O)C(=O)N(c2ccccc2)N(c2ccccc2)C1=O [#11, 4-butyl-4-hydoxy-1,2-diphenyl-3,5-pyrazolidnedione]
Clonal growth, H: high density area of cell gradient, High (high concentration): ++(+)
Clonal growth, L: low density area of cell gradient, High (high concentration): ++
Clonal growth, H: high density area of cell gradient, Low: ++
Clonal growth, L: low density area of cell gradient, Low: ++
Clonal growth, H: high density area of cell gradient, Medium (medium concentration): ++
Clonal growth, L: low density area of cell gradient, Medium (medium concentration): ++
Effect on clonal growth (Exp 25, 48 hours incubation): did not show any growth inhibition; also recorded: high concentration might stimulate growth in densely seeded areas
Clonal growth (Experiment 25, H: area with high cell density, High concentration, after 48 hours incubation): ++(+)
Clonal growth [1]: ++
Clonal growth [2]: ++
Clonal growth [3]: ++
Clonal growth [4]: ++
Clonal growth [5]: ++
Clonal growth (Summary Table 3 of analogue tests (experiments 22-25), H (high cell density), High concentration): ++(+)
Clonal growth [6]: ++
Clonal growth [7]: ++
Clonal growth [8]: ++
Clonal growth [9]: ++
Clonal growth [10]: ++
Clonal inhibition by 4-OH-OPB analogues, summary of Exp 22-25: possible stimulation at high concentration

C[S+](C)[O-] [DMSO]
Effect on formation of clones at 4.7% (Exp 17): inhibited formation of clones, but not completely
Effect on formation of clones at 29.2 μl/700 μl or 4% (Exp 17): inhibited formation of clones, but not completely
Clonal growth, results read on the day 14 (Exp 17, a: close to densely seeded cell areas, Low: Colchicine 0.1, Podophyllotoxin 0.3, Etoposide 20, 4-OH—OPB 0.67 μM in wells, DMSO 1.16 μl): ++
Clonal growth, results read on the day 14 (Exp 17, a: close to densely seeded cell areas, Medium: Colchicine 0.3, Podophyllotoxin 0.9, Etoposide 60, 4-OH—OPB 2 μM in wells, DMSO 6.8 μl): ++
Clonal growth, results read on the day 14 (Exp 17, b: sparsely seeded areas in the same agar culture, Low: Colchicine 0.1, Podophyllotoxin 0.3, Etoposide 20, 4-OH—OPB 0.67 μM in wells, DMSO 1.16 μl): ++
Concentration up to which growth was approximately unaffected (Exp 17, soft agar cultures of S100T1): up to 1%
Growth inhibition at concentrations administered along with the test substances (Exp 19): did not show growth inhibition
Significance (a: close to densely seeded cell areas, High: Colchicine 1, Podophyllotoxin 3, Etoposide 200, 4-OH—OPB 6.7 μM in wells, DMSO 29.2 μl): Probably
Significance (a: close to densely seeded cell areas, Low: Colchicine 0.1, Podophyllotoxin 0.3, Etoposide 20, 4-OH—OPB 0.67 μM in wells, DMSO 1.16 μl): No
Significance (a: close to densely seeded cell areas, Medium: Colchicine 0.3, Podophyllotoxin 0.9, Etoposide 60, 4-OH—OPB 2 μM in wells, DMSO 6.8 μl): No
Significance (b: sparsely seeded areas, High: Colchicine 1, Podophyllotoxin 3, Etoposide 200, 4-OH—OPB 6.7 μM in wells, DMSO 29.2 μl): Yes
Significance (b: sparsely seeded areas, Low: Colchicine 0.1, Podophyllotoxin 0.3, Etoposide 20, 4-OH—OPB 0.67 μM in wells, DMSO 1.16 μl): No
Significance (b: sparsely seeded areas, Medium: Colchicine 0.3, Podophyllotoxin 0.9, Etoposide 60, 4-OH—OPB 2 μM in wells, DMSO 6.8 μl): No

Cc1c2oc3c(C)ccc(C(=O)N[C@@H]4C(=O)N[C@H](C(C)C)C(=O)N5CCC[C@H]5C(=O)N(C)CC(=O)N(C)[C@@H](C(C)C)C(=O)O[C@@H]4C)c3nc-2c(C(=O)N[C@@H]2C(=O)N[C@H](C(C)C)C(=O)N3CCC[C@H]3C(=O)N(C)CC(=O)N(C)[C@@H](C(C)C)C(=O)O[C@@H]2C)c(N)c1=O [Actino-mycin D, Actinomycin D, reference compound] (I: T[dV]P[Sar][NMeV] / II: T[dV]P[Sar][NMeV]; ester I:1-I:C, II:1-II:C; linker I:N-II:N via Actinocin(9to1))
Effect on clonal growth and toxicity (Exp 21): good, but probably no complete inhibition of clonal growth at low toxicity; also recorded: no absolute clonal inhibition of sparsely seeded cells; also recorded: There was signs of good, but not complete
Clonal growth [11]: ++
Clonal growth [12]: +
Clonal growth [13]: +
Clonal growth [14]: ++
Clonal growth [15]: (+)
Clonal growth, H high density area of cell gradient, High (high concentration): +
Clonal growth, L low density area of cell gradient, High (high concentration): ((+))
Clonal growth, H high density area of cell gradient, Low: ++
Clonal growth, L low density area of cell gradient, Low: +
Clonal growth, H high density area of cell gradient, Medium (medium concentration): ++
Clonal growth, L low density area of cell gradient, Medium (medium concentration): (+)
Effect on cell cloning in soft agar: Good, but not complete inhibition

CN(C)c1nc(N(C)C)nc(N(C)C)n1 [Altretamine, reference compound]
Effect on clonal growth (Exp 26): No effect on cell growth was observed; also recorded: carcinoma in mice. Altretamine had no effect
Resulting clonal growth of treated cultures (H: area with high cell density, High concentration): ++
Resulting clonal growth of treated cultures (H: area with high cell density, Low concentration): ++
Resulting clonal growth of treated cultures (H: area with high cell density, Medium concentration): ++
Resulting clonal growth of treated cultures (L: area with low cell density, High concentration): ++
Resulting clonal growth of treated cultures (L: area with low cell density, Low concentration): ++
Resulting clonal growth of treated cultures (L: area with low cell density, Medium concentration): ++
Clonal growth, H high density area of cell gradient, High (high concentration): ++
Clonal growth, L low density area of cell gradient, High (high concentration): ++
Clonal growth, H high density area of cell gradient, Low: ++
Clonal growth, L low density area of cell gradient, Low: ++
Clonal growth, H high density area of cell gradient, Medium (medium concentration): ++
Clonal growth, L low density area of cell gradient, Medium (medium concentration): ++
Effect on cell cloning in soft agar: No effect
